Source: ChEMBL document CHEMBL1201862, “PubChem BioAssay data set” (2004)
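Five concentrations, 48 hours, 96-well plates. Here, GI50 denotes the concentration required for 50% inhibition of growth.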 The source made the active and inactive calls. No stated cut-off is given here; in the data, active = GI50 up to about 1.1 µM and inactive = higher.

How the values were obtained:
Assay in all cases: NCI-60 cell line screen, 48 h
M19-MEL = system: M19-MEL
RXF 631 = system: RXF 631
XF498 = system: XF498
786-0 = system: 786-0
LXFL 529 = system: LXFL 529
SNB-78 = system: SNB-78
DMS-273 = system: DMS-273
T47D = system: T47D
Hs-578T = system: Hs-578T

## COc1c2c(c(O)c3c4c(c(C)cc13)C1OC3(C(OC)OC5CC(C)(O)C(OC6CC(C)(O)C(O)C(C)O6)C(C)O5)OC1C(OC)(O4)C31CO1)C(=O)C(O)CC2OC1CC(C)(O)C(OC(C)=O)C(C)O1 (stereo unspecified)
M19-MEL
  GI50: < 0.01 µM (active)
RXF 631
  GI50: < 0.01 µM (active)
XF498
  GI50: < 0.01 µM (active)
786-0
  GI50: < 0.01 µM (active)
LXFL 529
  GI50: < 0.01 µM (active)
SNB-78
  GI50: < 0.01 µM (active)
DMS-273
  GI50: < 0.01 µM (active)

## O=C(NC1C2CC3CC(C2)CC1C3)c1cc(/C=C/c2ccccc2)nc(S)n1 (stereo unspecified)
M19-MEL
  GI50: > 100 µM (inactive)
RXF 631
  GI50: > 100 µM (inactive)
XF498
  GI50: > 100 µM (inactive)
LXFL 529
  GI50: > 100 µM (inactive)
SNB-78
  GI50: > 100 µM (inactive)
DMS-273
  GI50: > 100 µM (inactive)

## Nc1ccc(C2(c3ccc(N)cc3)C3CC4CC(C3)CC2C4)cc1
T47D
  GI50: 14.5 µM (inactive)

## Cc1c2cc[n+](C)cc2c(C)c2c1[nH]c1ccc(O)cc12 [ELLIPTINIUM ACETATE]
M19-MEL
  GI50: 4.7 µM (inactive)
Hs-578T
  GI50: 0.387 µM (active)
SNB-78
  GI50: 61.9 µM (inactive)
T47D
  GI50: 0.251 µM (active)
DMS-273
  GI50: 11.7 µM (inactive)

## C#CCn1c(=O)c(C#N)c(O)c2cc3ccccc3nc21
M19-MEL
  GI50: > 100 µM (inactive)
XF498
  GI50: > 100 µM (inactive)
SNB-78
  GI50: > 100 µM (inactive)
DMS-273
  GI50: > 100 µM (inactive)

## Cn1ccc(C(=O)NCCN(CCNC(=O)c2ccn(C)c(=O)c2O)CCNC(=O)c2ccn(C)c(=O)c2O)c(O)c1=O
Hs-578T
  GI50: > 100 µM (inactive)
T47D
  GI50: > 100 µM (inactive)

## CCN1CCC(O)(/C=C/c2ccccc2C)C(C(=O)/C=C/c2ccccc2C)C1 (stereo unspecified)
Hs-578T
  GI50: 3.76 µM (inactive)
T47D
  GI50: 1.85 µM (inactive)

## OCCOCn1nc(-c2ccccc2)nc1-c1cnccn1
786-0
  GI50: > 100 µM (inactive)
T47D
  GI50: > 100 µM (inactive)

## Nc1ncnc2c1ncn2C=C=CCO
Hs-578T
  GI50: > 100 µM (inactive)
T47D
  GI50: > 100 µM (inactive)

## O=C(O)C(C(=O)O)P(=S)(S)c1ccccc1 (stereo unspecified)
M19-MEL
  GI50: > 100 µM (inactive)
RXF 631
  GI50: > 100 µM (inactive)
XF498
  GI50: > 100 µM (inactive)
786-0
  GI50: > 100 µM (inactive)
LXFL 529
  GI50: > 100 µM (inactive)
Hs-578T
  GI50: > 100 µM (inactive)
SNB-78
  GI50: > 100 µM (inactive)
T47D
  GI50: > 100 µM (inactive)
DMS-273
  GI50: > 100 µM (inactive)

## NCCCCN(CCCN)Cc1ccccc1
786-0
  GI50: > 100 µM (inactive)
Hs-578T
  GI50: > 100 µM (inactive)
T47D
  GI50: > 100 µM (inactive)

## CSC(=N)NNC(=O)CCC(=O)Nc1ccccc1C(F)(F)F
M19-MEL
  GI50: > 100 µM (inactive)
786-0
  GI50: > 100 µM (inactive)
LXFL 529
  GI50: > 100 µM (inactive)
SNB-78
  GI50: > 61.5 µM (inactive)
DMS-273
  GI50: > 100 µM (inactive)

## O=C(NC1C(O)C(O)C(CO)OC1n1cc(F)c(=O)[nH]c1=O)OCc1ccccc1 (stereo unspecified)
RXF 631
  GI50: > 100 µM (inactive)
LXFL 529
  GI50: > 100 µM (inactive)
SNB-78
  GI50: > 100 µM (inactive)
DMS-273
  GI50: > 100 µM (inactive)

## O=Cc1ccc(CCl)cc1
M19-MEL
  GI50: 17.3 µM (inactive)
RXF 631
  GI50: 3.16 µM (inactive)
XF498
  GI50: 20 µM (inactive)
LXFL 529
  GI50: 16.2 µM (inactive)
SNB-78
  GI50: 16.5 µM (inactive)
DMS-273
  GI50: 19.8 µM (inactive)

## c1ccc2c(c1)SC1Sc3ccccc3[S+]21 (stereo unspecified)
786-0
  GI50: 25.9 µM (inactive)
Hs-578T
  GI50: 64.9 µM (inactive)
T47D
  GI50: 12.5 µM (inactive)

## CCCCC1=C(Br)C(=C(Br)Br)OC1=O
M19-MEL
  GI50: 2.74 µM (inactive)
XF498
  GI50: 7.62 µM (inactive)
SNB-78
  GI50: 6.01 µM (inactive)
DMS-273
  GI50: 2.74 µM (inactive)

## C(/C=N/c1ccccc1)=C(/Nc1ccccc1)C12CC3CC(CC(C3)C1)C2
786-0
  GI50: 15 µM (inactive)
Hs-578T
  GI50: 37.5 µM (inactive)
T47D
  GI50: 15.3 µM (inactive)

## CCN(CC)Cc1ccc2cccnc2c1O
Hs-578T
  GI50: 25.4 µM (inactive)

## COC(=O)C1OC(Oc2cc(O)c3c(=O)cc(-c4ccc(O)cc4)oc3c2)C(O)C(O)C1O (stereo unspecified)
M19-MEL
  GI50: > 100 µM (inactive)
XF498
  GI50: > 100 µM (inactive)
SNB-78
  GI50: > 100 µM (inactive)
DMS-273
  GI50: > 100 µM (inactive)

## CC1CCC(O)/C=C/C(=O)OC(C)C(O)/C=C/C(=O)O1 (stereo unspecified)
786-0
  GI50: > 92.9 µM (inactive)
Hs-578T
  GI50: > 100 µM (inactive)
T47D
  GI50: > 100 µM (inactive)

## NC(=O)c1coc(C2OC(CO)C(O)C2O)n1 (stereo unspecified)
M19-MEL
  GI50: > 100 µM (inactive)
786-0
  GI50: > 100 µM (inactive)
LXFL 529
  GI50: > 100 µM (inactive)
SNB-78
  GI50: > 100 µM (inactive)
DMS-273
  GI50: > 100 µM (inactive)
